Assays:
Assay in all cases: relative viability (nuclei count vs DMSO), 5 days (fraction); higher = more cells survive
Selisistat = compound: C1CC(C2=C(C1)C3=C(N2)C=CC(=C3)Cl)C(=O)N [Selisistat]
How it was run: (§1)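 Lung cancer cell lines received five library-drug doses (not always all listed) spaced by √10, pinned on vehicle-anchored 1536-well plates after an overnight stay at 37 °C. Five days later, with no medium change, nuclei were Hoechst-stained, imaged at 4× and counted with MetaXpress. Viability is treated-well nuclei relative to vehicle-well nuclei, as a median across plates. Passing plates had control CV below 25% and at least one doubling.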

Serdemetan = compound: c1ccc2c(CCNc3ccc(Nc4ccncc4)cc3)c[nH]c2c1 [Serdemetan]
How it was run: as §1

Serdemetan + Bortezomib = compound: c1ccc2c(CCNc3ccc(Nc4ccncc4)cc3)c[nH]c2c1 [Serdemetan] + CC(C)C[C@H](NC(=O)[C@H](Cc1ccccc1)NC(=O)c1cnccn1)B(O)O [Bortezomib] (partner 0.002 µM)
How it was run: (§2)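 Lung cancer cell lines in 1536-well plates were dosed by pin tool the day after seeding, either with one drug alone or with a fixed anchor-drug dose plus five library-drug doses (not always all listed) in √10 steps. After 5 days, cells were fixed and their nuclei stained in one step (final 0.05% Triton X-100, 1% formaldehyde, 1 ug/ml Hoechst), then counted on 4× images. Relative viability is the nuclei count in treated wells divided by that in vehicle wells. Values are medians of duplicate plates.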

Selisistat + Alpelisib = compound: C1CC(C2=C(C1)C3=C(N2)C=CC(=C3)Cl)C(=O)N [Selisistat] + Cc1nc(NC(=O)N2CCC[C@H]2C(N)=O)sc1-c1ccnc(C(C)(C)C(F)(F)F)c1 [Alpelisib] (partner 2 µM)
How it was run: as §2

Cell Line	relative viability (Selisistat; 0.4 µM)	relative viability (Selisistat; 1.265 µM)	relative viability (Selisistat; 4 µM)	relative viability (Selisistat; 12.65 µM)	relative viability (Selisistat; 40 µM)	relative viability (Serdemetan; 0.04 µM)	relative viability (Serdemetan; 0.1265 µM)	relative viability (Serdemetan; 0.4 µM)	relative viability (Serdemetan; 1.265 µM)	relative viability (Serdemetan; 4 µM)	relative viability (Serdemetan + Bortezomib; first compound 0.04 µM)	relative viability (Serdemetan + Bortezomib; first compound 0.1265 µM)	relative viability (Serdemetan + Bortezomib; first compound 0.4 µM)	relative viability (Serdemetan + Bortezomib; first compound 1.265 µM)	relative viability (Serdemetan + Bortezomib; first compound 4 µM)	relative viability (Selisistat + Alpelisib; first compound 0.4 µM)	relative viability (Selisistat + Alpelisib; first compound 1.265 µM)	relative viability (Selisistat + Alpelisib; first compound 4 µM)	relative viability (Selisistat + Alpelisib; first compound 12.65 µM)	relative viability (Selisistat + Alpelisib; first compound 40 µM)
NCI-H1703	0.894	0.834	0.9	0.853	0.848	1.08	0.84	0.882	0.764	0.71	0.345	0.313	0.396	0.362	0.262	0.28	0.385	0.265	0.336	0.397
Calu-6	1.03	0.965	0.99	0.976	1	1	1.02	1.02	0.875	0.677	1.1	0.969	1.04	0.864	0.672	1.02	0.896	1.01	0.841	0.873
EBC-1	0.994	0.963	1.01	0.956	0.954	0.903	0.931	0.943	0.857	0.722	0.482	0.575	0.588	0.563	0.421	0.982	0.891	0.806	0.807	0.911
SW 1573	1.12	0.89	0.896	1.03	1.05	0.904	1.11	0.966	0.48	0.343	0.931	1.01	0.892	0.308	0.242	0.703	0.884	0.716	0.804	0.864
A-427	1.03	0.984	0.845	0.971	0.944	0.954	1	1.03	0.762	0.825	0.954	1.03	0.959	0.662	0.598	1.08	1.09	1.02	1.14	1.12
NCI-H2347	1.02	1.09	0.716	0.993	0.99	0.982	0.887	0.903	0.603	0.7	1.05	0.752	1.2	1.01	0.744	1.17	1.15	0.824	1	1.12
NCI-H1355	1.02	0.987	0.832	0.97	1.03	0.99	1.05	0.907	0.936	0.918	1.23	1.19	1.12	1.17	1.1	0.936	0.874	–	0.862	1.05
PC-3 [JPC-3]	1.14	1.04	0.85	1.07	0.948	1.04	0.961	0.702	0.98	1.06	0.868	0.861	–	0.755	0.812	1.08	0.973	1.05	1.02	1.05
NCI-H2228	0.9	1.12	0.966	1.05	1.11	0.974	0.98	0.945	0.342	0.336	1.34	1.02	0.974	0.404	0.301	0.721	0.687	0.587	0.691	0.647
HOP-62	0.997	0.987	0.861	0.928	1.07	1.03	0.999	1.01	0.873	0.907	1.09	0.928	0.476	0.47	0.871	0.796	1.02	1.06	0.944	1
HARA	0.955	0.938	0.749	0.964	1.07	0.938	1.01	0.937	0.757	0.877	1.09	1.1	1.15	–	1.08	0.881	0.868	0.793	0.846	0.842
NCI-H838	1.03	0.958	0.863	0.96	0.985	0.959	0.976	0.98	0.92	1.14	0.869	0.739	0.848	0.74	0.856	1.11	0.971	0.912	1.1	0.954
NCI-H1755	1.08	1.1	0.977	1.01	1.08	1	0.975	0.959	0.775	0.763	0.877	0.949	0.896	0.58	0.563	1.03	0.958	0.94	0.956	0.935
HCC-78	0.954	1.08	0.7	0.875	0.939	0.998	0.752	0.842	0.828	0.648	0.471	0.524	0.476	0.52	0.372	0.439	0.367	0.349	0.34	0.278
IA-LM	0.945	0.959	0.918	0.9	1.01	0.942	0.963	0.956	0.711	0.505	0.846	0.854	0.784	0.535	0.324	0.882	0.79	0.545	0.74	0.696
NCI-H322M	0.98	1.01	–	0.994	1.01	0.9	1	0.901	0.791	0.874	1.32	1.26	1.06	1.2	1.36	0.932	0.934	–	0.734	0.819
NCI-H3122	1.03	1.07	0.782	1.03	1.02	0.995	0.984	0.948	0.758	1.02	1.03	0.955	1.06	–	1.08	0.743	0.694	0.407	0.873	0.748

Cell Line	relative viability (Selisistat; 0.4 µM)	relative viability (Selisistat; 1.265 µM)	relative viability (Selisistat; 4 µM)	relative viability (Selisistat; 12.65 µM)	relative viability (Selisistat; 40 µM)	relative viability (Serdemetan; 0.04 µM)	relative viability (Serdemetan; 0.1265 µM)	relative viability (Serdemetan; 0.4 µM)	relative viability (Serdemetan; 1.265 µM)	relative viability (Serdemetan; 4 µM)	relative viability (Serdemetan + Bortezomib; first compound 0.04 µM)	relative viability (Serdemetan + Bortezomib; first compound 0.1265 µM)	relative viability (Serdemetan + Bortezomib; first compound 0.4 µM)	relative viability (Serdemetan + Bortezomib; first compound 1.265 µM)	relative viability (Serdemetan + Bortezomib; first compound 4 µM)	relative viability (Selisistat + Alpelisib; first compound 0.4 µM)	relative viability (Selisistat + Alpelisib; first compound 1.265 µM)	relative viability (Selisistat + Alpelisib; first compound 4 µM)	relative viability (Selisistat + Alpelisib; first compound 12.65 µM)	relative viability (Selisistat + Alpelisib; first compound 40 µM)
COR-L23	1.05	1.06	1.08	0.908	1.01	0.951	0.988	1.06	0.823	0.874	0.918	0.863	0.996	0.669	0.978	0.921	0.872	0.793	0.767	0.766
NCI-H2087	1.18	1.06	–	0.89	0.97	1.16	1.08	0.944	0.57	0.409	0.738	0.812	0.759	0.375	0.572	1.33	0.933	1	0.971	1.04
LC-2-ad	1.05	0.762	0.794	0.926	1.01	1	0.962	0.911	0.962	0.872	0.921	0.927	1.04	–	0.912	1.02	0.853	0.89	0.848	0.901
NCI-H1915	0.992	1.03	0.795	0.963	1	1	1.02	0.996	0.819	0.948	0.957	0.974	1.02	0.723	0.86	1.08	1.03	1.09	1.05	1.04
NCI-H2023	0.952	0.966	0.828	0.876	0.934	0.884	1.09	0.932	0.424	0.345	0.74	0.985	0.9	0.485	0.28	0.594	0.52	0.608	0.59	0.592
COR-L 105	0.904	0.895	0.675	0.855	0.877	0.971	0.875	0.734	0.815	0.89	0.775	0.764	0.563	0.7	0.745	0.888	0.929	1.03	0.964	0.846
RERF-LC-KJ	1.06	0.969	0.927	0.836	0.87	0.99	0.948	0.93	0.942	0.939	1.19	1.16	1.06	1.03	0.797	0.853	0.754	0.632	0.789	0.73
LXF-289	1.05	1.03	0.867	0.949	1.07	1.02	0.996	0.933	0.84	0.885	0.954	1.01	0.944	0.951	0.894	1.13	1.04	0.989	1	0.984
PC-14	1.02	0.957	0.891	0.954	1.09	0.966	0.972	0.689	0.907	0.728	0.924	0.797	0.791	0.606	0.497	0.918	0.885	0.994	0.952	1.1
NCI-H650	0.948	0.868	1.08	0.886	1.06	0.896	0.889	0.934	0.878	0.764	0.673	0.679	0.872	0.674	0.848	1.38	–	1.47	1.06	1.15
NCI-H1666	1.06	0.933	0.877	1.04	0.966	0.985	0.946	0.934	0.634	0.781	0.97	0.761	0.838	0.868	0.534	1.06	0.978	0.946	0.847	0.748
NCI-H2085	1.11	0.991	0.858	0.965	1.05	0.964	0.968	0.897	0.844	0.744	1.11	1.13	1.06	0.723	0.674	1.04	0.983	0.968	1.06	0.919
NCI-H1734	1.02	0.942	0.921	1.08	1.03	0.854	0.455	0.821	0.171	0.263	0.908	–	0.677	0.158	0.18	0.744	0.621	0.697	0.739	0.706
NCI-H2126	1.08	1.05	0.833	0.999	1.02	1.02	1.05	0.96	0.948	1.02	1.12	1.12	1.11	0.934	1.12	0.812	0.77	0.758	0.863	0.81
EMC-BAC-2	0.978	0.996	0.595	0.688	0.561	0.962	1.02	0.971	0.849	0.967	1.07	1.06	1.04	0.907	0.939	0.693	0.708	0.674	0.697	0.777
NCI-H1993	0.911	0.898	–	1.01	1.04	0.977	0.995	0.699	0.831	0.89	1.08	1.06	1.05	–	1.11	0.575	0.67	–	0.775	0.721
